Experimental data taken from patent publication US6391303B1, “Methods and compositions for inducing oral tolerance in mammals” (Emisphere Technologies, Inc., priority 1996, dated 2002).

Key:
[1] = test system: Experimental Autoimmune Encephalomyelitis (EAE)
Procedure: Two days after the (last) oral dose, all groups were challenged in the footpad with 0.05 mg of MBP emulsified with Complete Freund's Adjuvant containing Mycobacterium tuberculosis H37Ra, 4 mg/ml. Clinical signs of disease were observed starting on Day 11 after the challenge and rated on a scale of 0 (no disease) to 5 (death).

[2] = test system: anti-HA (influenza) IgG antibodies; experiment: ELISA for serum anti-HA IgG after single oral dose of influenza vaccine with delivery agent; assay type: in vivo, BALB/c mice; details: single oral dose 15 μg influenza vaccine A/Johannesburg/39/94 (H3N2) + 500 mg/kg delivery agent
Procedure: Ten BALB/c mice were administered a single oral dose of 15 μg of influenza antigen [influenza vaccine A/Johannesburg/39/94 (H3N2)] per mouse with 500 mg/kg of E352.
1. Coat plates with HA antigen, 10 μg/mL in carbonate buffer.
3. Block with Superblock™ or 1/10 diluted Bovine Serum Albumin (BSA).
4. Add 100 μL per well of diluent (Superblock™ or 1/15 diluted BSA) to all except the top row.
5. In the first row, add 150 μL per well of 1/100 diluted test serum in duplicate and serially dilute 3× down the plate. Leave 2 empty wells as background.
6. Incubate 2 hours at room temperature.
8. To each well, add 100 μl of IgG isotype-specific anti-mouse alkaline-phosphatase conjugated antibody (diluted with 4% PEG 6000).20. Incubate overnight at 4/C.
10. Add 100 μL per well of p-nitrophenyl phosphate (pNPP) substrate solution and incubate in the dark with shaking for 30 minutes.
11. Read and record OD405 after subtracting the background absorbance.

[3] = single dose MBP + delivery agent versus one or five doses of MBP alone

Q: With `O=C(O)CCCc1ccc(NC(=O)c2ccccc2O)cc1` [E352, 4-[4-(N-salicyloyl)]aminophenyl butyric acid] as the molecule, how does the “Mean Disease Index per group (highest mean score multiplied by the duration of symptoms)” value [1, 3] read?
A: suppressed these disease parameters significantly

Q: What about the “mean Maximal Score per group” value [1, 3] of the same molecule?
A: suppressed these disease parameters significantly

Q: And the “mean day of onset of paralysis” value ([1]; single oral dose 1.0 mg MBP alone or with delivery agent, day after challenge)?
A: 16 days

Q: What about the “clinical disease (Mean Clinical Score) of EAE” value ([1]; single oral dose 1.0 mg MBP with delivery agent, footpad challenge 0.05 mg MBP/CFA, scale 0 to 5) of the same molecule?
A: suppression of clinical disease

Q: And the “serum anti-HA IgG titer relative to control fed only influenza antigen” value [2]?
A: significantly suppressed the production of anti-influenza antibodies
